The text below walks through data of ChEMBL document CHEMBL2202952, “Marthiapeptide A, an anti-infective and cytotoxic polythiazole cyclopeptide from a 60 L scale fermentation of the deep sea-derived Marinactinospora thermotolerans SCSIO 00652” (J Nat Prod, 2012).

Each structure is given as a SMILES string. ≈ marks a conversion by molar mass, not a printed value. Calls of active or inactive are those of the source. The calls are words filed in the database; no cut-off is given here.

A short description of assay [1]: Antimicrobial activity against Aeromonas hydrophila subsp. hydrophila ATCC 7966. The assay is classed as functional.
Another assay relates to Bacillus thuringiensis. The assay is described as follows: Antimicrobial activity against Bacillus thuringiensis. It is filed as functional.
In a further assay the test system is Micrococcus luteus. The assay is described as follows: Antimicrobial activity against Micrococcus luteus. It is filed as functional.
The test system of assay [2] is Escherichia coli. In words: Antimicrobial activity against Escherichia coli ATCC 25922. The assay is classed as functional.
In a further assay the test system is Staphylococcus aureus. The assay is described as follows: Antimicrobial activity against Staphylococcus aureus ATCC 29213. The assay is classed as functional.
The test system of assay [3] is Escherichia coli. In words: Antimicrobial activity against Escherichia coli DH5[alpha]. The assay is classed as functional.
For another assay, the system named is Bacillus subtilis. The assay is described as follows: Antimicrobial activity against Bacillus subtilis ATCC 6633. It is filed as functional.
Assay [4] concerns Nucleic Acid. The assay is described as follows: Effect on F21T G-quadruplex DNA thermal stabilization assessed as change in melting temperature at 2 uM by FRET. It is filed as nucleic-acid assay.
For assay [5], the system named is Nucleic Acid. In words: Binding affinity to human telomeric intramolecular HTG21 G-quadruplex DNA at 20 uM by CD spectroscopy. The assay is classed as nucleic-acid assay.
The test system of assay [6] is SF-268. The assay is described as follows: Potency index, ratio of IC50 for cisplatin to IC50 for test compound against human SF268 cells by SRB method. It is filed as functional.
Assay [7] concerns MCF7. The assay is described as follows: Potency index, ratio of IC50 for cisplatin to IC50 for test compound against human MCF7 cells by SRB method. It is filed as functional.
The test system of assay [8] is HepG2. The assay is described as follows: Cytotoxicity against human HepG2 cells by SRB method. The assay is classed as functional, cell-based.
The subject of assay [9] is HepG2. In words: Potency index, ratio of IC50 for cisplatin to IC50 for test compound against human HepG2 cells by SRB method. It is filed as functional. A general note: In SRB staining, fixed cells bind dye roughly in proportion to their protein.
Assay [10] concerns NCI-H460. The assay is described as follows: Potency index, ratio of IC50 for cisplatin to IC50 for test compound against human NCI-H460 cells by SRB method. It is filed as functional.
In assay [11] the test system is MCF7. The assay is described as follows: Cytotoxicity against human MCF7 cells by SRB method. The assay is classed as functional, cell-based.
Assay [12] has as its system NCI-H460. In words: Cytotoxicity against human NCI-H460 cells by SRB method. The assay is classed as functional, cell-based.
Assay [13] concerns SF-268. In words: Cytotoxicity against human SF268 cells by SRB method. It is filed as functional, cell-based.

Usually MIC stands for the least concentration at which growth counts as inhibited. A low value points to a more susceptible organism. Take `CC[C@H]1OC(=O)[C@H](C)[C@@H](O[C@H]2C[C@@](C)(OC)[C@@H](O)[C@H](C)O2)[C@H](C)[C@@H](O[C@@H]2O[C@H](C)C[C@H](N(C)C)[C@H]2O)[C@](C)(O)C[C@@H](C)C(=O)[C@H](C)[C@@H](O)[C@]1(C)O` [ERYTHROMYCIN]: the MIC in assay [1] was 4 µg/mL (≈ 5.45 µM); in the assay with Bacillus thuringiensis, less than 1 µg/mL; against Micrococcus luteus, less than 1 µg/mL; against Escherichia coli [2], 32 µg/mL (≈ 43.6 µM); against Staphylococcus aureus it was 16 µg/mL (≈ 21.8 µM); against Escherichia coli [3], 64 µg/mL (≈ 87.2 µM). Besides, the MIC against Bacillus subtilis is less than 1 µg/mL.
Turning to `NC[C@H]1O[C@H](O[C@H]2[C@H](O)[C@@H](O[C@H]3O[C@H](CO)[C@@H](O)[C@H](N)[C@H]3O)[C@H](N)C[C@@H]2N)[C@H](O)[C@@H](O)[C@@H]1O` [KANAMYCIN], the MIC is less than 1 µg/mL in assay [1]; 4 µg/mL (≈ 8.26 µM) in the assay with Bacillus thuringiensis; 32 µg/mL (≈ 66 µM) against Micrococcus luteus; 16 µg/mL (≈ 33 µM) against Escherichia coli [2]; 8 µg/mL (≈ 16.5 µM) against Staphylococcus aureus; 32 µg/mL (≈ 66 µM) against Escherichia coli [3]. Also, the MIC in the assay on Bacillus subtilis is less than 1 µg/mL.
As a reminder, the ΔTm is the change in melting temperature against a reference sample. The IC50 is the concentration at which inhibition is half-maximal. Turning to `CC[C@H](C)[C@@H]1NC(=O)[C@@H](Cc2ccccc2)NC(=O)[C@@H]2CSC(=N2)c2csc(n2)-c2csc(n2)-c2csc(n2)[C@@H](C)NC1=O` [MARTHIAPEPTIDE A], the MIC in assay [1] was more than 128 µg/mL; in the assay with Bacillus thuringiensis, 2 µg/mL (≈ 3 µM); with Micrococcus luteus, 2 µg/mL (≈ 3 µM); in the assay on Escherichia coli [2], more than 128 µg/mL; with Staphylococcus aureus it was 8 µg/mL (≈ 12 µM); in the assay with Escherichia coli [3], more than 128 µg/mL. This compound also yielded an MIC against Bacillus subtilis of 4 µg/mL (≈ 6.01 µM). Besides, the ΔTm in the assay with Nucleic Acid [4] is 0.9 °C. The outcome in the assay on Nucleic Acid [5] was inactive. The “Ratio IC50” value with SF-268 [6], in the assay with MCF7 [7], with HepG2 [9] and in the assay on NCI-H460 [10] was 5 each time. In addition, the IC50 in the assay on HepG2 [8] came out at 520 nM; in the assay with MCF7 [11], 430 nM; in the assay on NCI-H460 [12] it was 470 nM; in the assay with SF-268 [13], 380 nM.
